Data reported in ChEMBL document CHEMBL1135835, “Biological activity of the tryprostatins and their diastereomers on human carcinoma cell lines” (2002).

Key:
Type in all cases: functional
[1] = system: NCI-H520; test: Growth inhibitory activity against H520 (human lung) cancer cell line at 10 uM dose
[2] = system: NCI-H520; test: Growth inhibitory activity against H520 (human lung) cancer cell line at 100 uM dose.
[3] = system: MCF7; test: Growth inhibitory activity against MCF-7 (human breast) cancer cell line at 10 uM dose.
[4] = system: MCF7; test: Growth inhibitory activity against MCF-7 (human breast) cancer cell line at 100 uM dose.
[5] = system: PC-3; test: Growth inhibitory activity against PC-3 (human prostate) cancer cell line at 10 uM dose.
[6] = system: PC-3; test: Growth inhibitory activity against PC-3 (human prostate) cancer cell line at 100 uM dose.
[7] = system: MCF7; test: Gowth inhibitory activity against MCF-7 (human lbreast) cancer cell line
[8] = system: NCI-H522; test: Growth inhibitory activity against NCI-H522 (human lung) cancer cell line
[9] = system: PC-3; test: Growth inhibitory activity against PC-3 (human prostate) cancer cell line

Compound | Cell survival [1] | Cell survival [2] | Cell survival [3] | Cell survival [4] | Cell survival [5] | Cell survival [6] | GI50 [7] | GI50 [8] | GI50 [9]
CC(C)=CCc1[nH]c2ccccc2c1C[C@H]1NC(=O)[C@H]2CCCN2C1=O | >100% | 99.8% | >100% | >100% | 95.8% | 78.9% |  |  | 
COc1ccc2c(C[C@H]3NC(=O)[C@H]4CCCN4C3=O)c(CC=C(C)C)[nH]c2c1 | 81.7% | 75.2% | >100% | >100% | >100% | 83.7% |  |  | 
CC(C)=CCc1[nH]c2ccccc2c1C[C@@H]1NC(=O)[C@H]2CCCN2C1=O | 88.3% | 0.1% | 73.6% | 0% | 59.3% | 0.2% | 15.9 µM | 15.8 µM | 11.9 µM
CC(C)=CCc1[nH]c2ccccc2c1C[C@@H]1NC(=O)[C@@H]2CCCN2C1=O [TRYPROSTATIN B] | 77.6% | 60.5% | 88.2% | 66.7% | 95.5% | 68.9% |  |  | 
COc1ccc2c(C[C@H]3NC(=O)[C@@H]4CCCN4C3=O)c(CC=C(C)C)[nH]c2c1 | >100% | >100% | >100% | >100% | >100% | >100% |  |  | 
COc1ccc2c(C[C@@H]3NC(=O)[C@@H]4CCCN4C3=O)c(CC=C(C)C)[nH]c2c1 [TRYPROSTATIN A] | 80.1% | 79.4% | >100% | 95% | 99.2% | 95.6% |  |  | 
CC(C)=CCc1[nH]c2ccccc2c1C[C@H]1NC(=O)[C@@H]2CCCN2C1=O | >100% | 76.5% | >100% | >100% | 97.3% | 68.5% |  |  | 
COc1ccc2c(C[C@@H]3NC(=O)[C@H]4CCCN4C3=O)c(CC=C(C)C)[nH]c2c1 | 99.3% | 98.5% | >100% | 99% | >100% | >100% |  |  | 
